Each compound was assayed against T1, Transient receptor potential cation channel subfamily V member 1 (Homo sapiens, UniProt Q8NER1) (assay: Antagonist activity at pH 6 to 6.3 activated human TRPV1 expressed in CHO cells assessed as inhibition of intracellular calcium level preincubated with cells followed by receptor activation by Fluo-4 dye based FLIPR assay). Details: not given; call rule not given here.
Assay type: cell-based

T1 sequence (Q8NER1 whole entry): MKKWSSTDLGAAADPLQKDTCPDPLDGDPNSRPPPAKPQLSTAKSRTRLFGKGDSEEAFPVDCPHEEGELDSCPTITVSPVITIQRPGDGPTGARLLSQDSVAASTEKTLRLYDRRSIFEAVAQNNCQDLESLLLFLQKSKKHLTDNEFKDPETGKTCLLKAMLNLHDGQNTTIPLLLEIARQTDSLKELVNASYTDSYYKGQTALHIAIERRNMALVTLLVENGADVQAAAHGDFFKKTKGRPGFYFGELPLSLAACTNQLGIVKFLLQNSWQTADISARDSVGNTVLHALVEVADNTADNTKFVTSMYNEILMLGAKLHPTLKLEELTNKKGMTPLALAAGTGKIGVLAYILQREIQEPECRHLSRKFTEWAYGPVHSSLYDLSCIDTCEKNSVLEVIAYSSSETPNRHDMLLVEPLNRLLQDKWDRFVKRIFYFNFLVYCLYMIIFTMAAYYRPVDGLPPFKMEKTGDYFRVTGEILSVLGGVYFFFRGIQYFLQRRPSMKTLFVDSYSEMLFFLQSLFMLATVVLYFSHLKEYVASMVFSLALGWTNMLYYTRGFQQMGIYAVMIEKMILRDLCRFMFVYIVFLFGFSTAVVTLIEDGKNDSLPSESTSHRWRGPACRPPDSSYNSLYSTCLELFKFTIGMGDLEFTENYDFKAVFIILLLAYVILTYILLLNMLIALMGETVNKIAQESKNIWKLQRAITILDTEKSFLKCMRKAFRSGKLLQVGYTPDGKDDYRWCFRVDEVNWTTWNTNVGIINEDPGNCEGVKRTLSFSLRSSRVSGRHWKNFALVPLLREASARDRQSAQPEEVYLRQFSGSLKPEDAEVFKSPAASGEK

Structure (SMILES)	IC50
C[C@H](C(=O)NCc1cc(C(C)(C)C)nn1-c1cccc(Cl)c1)c1ccc(NS(C)(=O)=O)c(F)c1	Not Active

These compounds were tested against T1, Transient receptor potential cation channel subfamily V member 1 (assay: Antagonist activity at elevated temperature activated human TRPV1 expressed in CHO cells assessed as inhibition of intracellular calcium level preincubated for 5 mins followed by receptor activation by increasing temperature to 45 degC by Fluo-4 dye based FLIPR assay). Details: not given.
Assay type: cell-based

Structure (SMILES)	IC50
C[C@H](C(=O)NCc1cc(C(C)(C)C)nn1-c1cccc(Cl)c1)c1ccc(NS(C)(=O)=O)c(F)c1	Not Active

Each compound was assayed on Mus musculus (assay: Inhibition of capsaicin-induced hypothermia in NMRI mouse at 3 mg/kg, po pretreated for 15 mins followed by capsaicin treatment measured up to 120 mins relative to control). Details: not given.
Assay type: functional

Structure (SMILES)	inhibition in vivo at 3 mg/kg [%]
C[C@H](C(=O)NCc1cc(C(C)(C)C)nn1-c1cccc(Cl)c1)c1ccc(NS(C)(=O)=O)c(F)c1	95
C[C@H](C(=O)NCc1cc(C(F)(F)F)nn1-c1cccc(Cl)c1)c1ccc(NS(C)(=O)=O)c(F)c1	85

These compounds were tested against T1, Transient receptor potential cation channel subfamily V member 1 (assay: Antagonist activity at human TRPV1 expressed in CHO cells assessed as inhibition of capsaicin-induced intracellular calcium level preincubated for 6 mins followed by capsaicin addition by Fluo-4 dye based FLIPR assay). Details: cho.
Assay type: cell-based

Structure (SMILES)	Ki
COc1ccc(-n2nc(C(C)(C)C)cc2CNC(=O)C(C)c2ccc(NS(C)(=O)=O)c(F)c2)cc1 (stereo not drawn)	Not Active
CC(C)(C)c1cc(CNC(=O)C(c2cccc(F)c2)c2ccc(NS(C)(=O)=O)c(F)c2)n(-c2cccc(Cl)c2)n1 (stereo not drawn)	Not Active
CC(C)(C)c1cc(CNC(=O)C(c2ccc(NS(C)(=O)=O)c(F)c2)C2CCCCC2)n(-c2cccc(Cl)c2)n1 (stereo not drawn)	Not Active
CC(C(=O)NCc1cc(C(C)(C)C)nn1C)c1ccc(NS(C)(=O)=O)c(F)c1 (stereo not drawn)	Not Active

More lines, now with the values ahead:

Ki	Structure (SMILES)
Not Active	Cc1ccc(C(C(=O)NCc2cc(C(C)(C)C)nn2-c2cccc(Cl)c2)c2ccc(NS(C)(=O)=O)c(F)c2)cc1 (stereo not drawn)
Not Active	CC(C(=O)NCc1cc(C(C)(C)C)n[nH]1)c1ccc(NS(C)(=O)=O)c(F)c1 (stereo not drawn)

Same assay, conditions: read-out: Ki

Structure (SMILES)	Ki [nM]
CCCCCCn1nc(C(C)(C)C)cc1CNC(=O)C(C)c1ccc(NS(C)(=O)=O)c(F)c1 (stereo not drawn)	27.7
CC(C(=O)NCc1cc(C(F)(F)F)nn1-c1ccc(Cl)cc1)c1ccc(NS(C)(=O)=O)c(F)c1 (stereo not drawn)	0.4
CCCCCn1nc(C(C)(C)C)cc1CNC(=O)C(C)c1ccc(NS(C)(=O)=O)c(F)c1 (stereo not drawn)	50.2
CCC/C=C/n1nc(C(C)(C)C)cc1CNC(=O)C(C)c1ccc(NS(C)(=O)=O)c(F)c1 (stereo not drawn)	5.1

Further lines, results first:

Ki [nM]	Structure (SMILES)
819	Cc1ccc(/C=C/c2ccc(-n3nc(C(C)(C)C)cc3CNC(=O)C(C)c3ccc(NS(C)(=O)=O)c(F)c3)cc2)cc1 (stereo not drawn)
0.1	C[C@H](C(=O)NCc1cc(C(C)(C)C)nn1-c1ccc(F)c(Cl)c1)c1ccc(NS(C)(=O)=O)c(F)c1
8	CC(C(=O)NCc1cc(C(C)(C)C)nn1-c1ccccc1)c1ccc(NS(C)(=O)=O)c(F)c1 (stereo not drawn)

Each compound was assayed against T1, Transient receptor potential cation channel subfamily V member 1 (assay: Antagonist activity at human TRPV1 expressed in CHO cells assessed as inhibition of NADA-induced intracellular calcium level preincubated with cells followed by NADA addition by Fluo-4 dye based FLIPR assay). Details: not given.

Structure (SMILES)	Ki [nM]
C[C@H](C(=O)NCc1cc(C(C)(C)C)nn1-c1cccc(Cl)c1)c1ccc(NS(C)(=O)=O)c(F)c1	0.04
